Test results taken from patent publication US20190021380A1 (priority 2014, published 2019).
“And” between values parts separate entries of the source, which are not always exact repeats. Equal values may be shown once. Read-outs that look alike come from different tables or passages of the source.

Key:
T1R1/T1R3 receptor [1] = target: T1, T1R1/T1R3 receptor (Felis catus, UniProt E3UMS2); assay: Example 8: agonist screening of transmembrane compounds on T1R1/T1R3 in HEK293 cells; assay type: cell-based, cat; details: for T1R1/T1R3 agonist: transmembrane compound tested at 0.01, 0.1 and 1 mM, HEK293 cells expressing T1R1/T1R3, calcium dye and/or luminescent reporter; for agonist profile assessment: transmembrane compound alone, in words
Procedure: (§1) HEK293 cells that stably express T1R3 and inducibly express T1R1 were exposed to a transmembrane compound. Activation of the T1R1/T1R3 receptor was detected by a change in intracellular calcium levels using a calcium sensitive fluorescent dye and/or a luminescent reporter system. […] A FLIPR® Tetra or a FlexStation® 3 was used for data capture.
Each transmembrane compound was tested at concentrations of 0.01 mM, 0.1 mM, and 1 mM. […] To generate the dose response curves, the transmembrane compound was tested at concentrations of between 0.0001 mM and 1.0 mM in the presence of GMP and Ala.

T1R1/T1R3 receptor [2] = target: T1, T1R1/T1R3 receptor; assay: Example 8: PAM screening of transmembrane compounds with GMP and Ala on T1R1/T1R3 in HEK293 cells; assay type: cell-based, cat; details: for T1R1/T1R3 PAM: compound at 0.01, 0.1, 1 mM in combination with GMP+Ala mixtures (T1-T4), PAM if response to the combination is greater than the sum of the responses to compound alone and to GMP+Ala alone; for PAM profile assessment: in the presence of GMP and Alanine, in words
Description: as §1, with “to” for “to a”, “compound alone or in combination with Ala and GMP to activate the umami receptor.” for “compound.”
Dose response curves were generated for each transmembrane compound at concentrations of 0 (buffer only), 0.01, 0.1 and 1 mM, wherein each of the three concentrations of transmembrane compound was tested in combination with 0.03 mM GMP+100 mM Ala (T1); 0.6 mM GMP+10 mM Ala (T2); 0.1 mM GMP+60 mM Ala (T3) and 0.3 mM GMP+60 mM Ala (T4). The T4 mixture was also tested in a 2-fold dilution series (the T4(X) Concentration). In these experiments, the first test concentration was 2× (2 times) the T4 concentration. The subsequent test concentrations were 2-fold dilutions from that (1×, 0.5× etc.). This dilution series was tested with or without the addition of the test compound at a constant 0.3 mM concentration.
Activation of the umami receptor was also determined in the presence of 1 mM GMP+100 mM Ala to generate a “maximum” umami receptor activation level.

T1R1/T1R3 receptor [3] = target: T1, T1R1/T1R3 receptor; assay: cell-based; assay type: cell-based
Description: (§2) HEK293 cells that stably express T1R3 and inducibly express T1R1 were exposed to transmembrane compounds alone or in combination with one or more amino acids and/or one or more nucleotides to activate the umami receptor. Activation of the T1R1/T1R3 receptor was detected by a change in intracellular calcium levels using a calcium sensitive fluorescent dye. Cells that express T1R3 but not T1R1 were used as a control. A FLIPR® Tetra or a FlexStation® 3 was used for data capture.
(§3) In each experiment, serial dilutions of up to 10 mM of the transmembrane compound were added to the T1R1/T1R3-expressing cells.

T1R1/T1R3 receptor [4] = target: T1, T1R1/T1R3 receptor; assay type: cell-based; details: CNBD = Could not be determined; for Thres +IMP (0.2 mM): threshold in the presence of 0.2 mM IMP
Description: as §2, §3

[5] = in the presence of 0.2 mM IMP, relative to Ala

For `COc1ccccc1C(=O)CN1C(=O)C(=O)N(Cc2cccs2)C1=O` [Formula 10, 1-(2-(2-methoxyphenyl)-2-oxoethyl)-3-(thiophen-2-ylmethyl)imidazolidine-2,4,5-trione], the T1R1/T1R3 agonist (T1R1/T1R3 receptor [1]) was “No” and the “T1R1/T1R3 PAM” value (T1R1/T1R3 receptor [2]) was “No”.
`CCCC(CCC)NC(=O)c1ccc2c(c1)OCO2` [N-(heptan-4-yl)benzo[d][1,3]dioxole-5-carboxamide] was tested, and the agonist profile assessment (T1R1/T1R3 receptor [1]) was “agonist”, the PAM profile assessment (T1R1/T1R3 receptor [2]) was “PAM activity” and the “Max resp ΔF/F +IMP (0.2 mM)” value (T1R1/T1R3 receptor [3]; in the presence of 0.2 mM IMP) was 1.4725 and 1.393 and 1.473. For the same molecule, the “Max resp % of Ala +IMP (0.2 mM)” value (T1R1/T1R3 receptor [3]; [5]) was 165.8% and 119.6%, the “Max resp ΔF/F +Alanine (20 mM)” value (T1R1/T1R3 receptor [3]; in the presence of 20 mM alanine) was 1.7725 and 1.2 and the “Max resp % of IMP +Alanine (20 mM)” value (T1R1/T1R3 receptor [3]; in the presence of 20 mM alanine, relative to IMP) was 118.2% and 142.7%.
With `O=C1CC(=O)N(Cc2ccccc2)C(=O)N1Cc1ccccc1` [Formula 24, 1,3-dibenzylpyrimidine-2,4,6(1H,3H,5H)-trione] the T1R1/T1R3 agonist (T1R1/T1R3 receptor [1]) was “Yes” and the “T1R1/T1R3 PAM” value (T1R1/T1R3 receptor [2]) was “No”.
With `O=C(CN1C(=O)C(=O)N(CCc2cccs2)C1=O)c1cccc2ccccc12` [Formula 11, 1-(2-(naphthalen-1-yl)-2-oxoethyl)-3-(2-(thiophen-2-yl)ethyl)imidazolidine-2,4,5-trione] the T1R1/T1R3 agonist (T1R1/T1R3 receptor [1]) was “No” and the “T1R1/T1R3 PAM” value (T1R1/T1R3 receptor [2]) was “No”.
`O=C1CC(=O)N(Cc2ccccc2)C(=O)N1Cc1ccccc1` [1,3-dibenzylpyrimidine-2,4,6(1H,3H,5H)-trione] was tested, and the agonist profile assessment (T1R1/T1R3 receptor [1]) was “agonist activity” and the “Thres +IMP (0.2 mM)” value (T1R1/T1R3 receptor [4]) was 0.1 mM.
In the case of `COC(=O)[C@H](CC(C)C)NCc1ccccc1.Cl` [Formula 18, Benzyl-L-leucine methyl ester hydrochloride], the T1R1/T1R3 agonist (T1R1/T1R3 receptor [1]) was “Yes” and the “T1R1/T1R3 PAM” value (T1R1/T1R3 receptor [2]) was “Yes”.
With `Cc1ccc(CNC(Cc2ccccc2)C(=O)O)cc1` (stereo not drawn) [Formula 23, 2-((4-methylbenzyl)amino)-3-phenylpropanoic acid] the T1R1/T1R3 agonist (T1R1/T1R3 receptor [1]) was “No” and the “T1R1/T1R3 PAM” value (T1R1/T1R3 receptor [2]) was “No”.
`O=C(CN1C(=O)C(=O)N(Cc2ccccc2)C1=O)c1ccc2c(c1)OCCO2` [Formula 4, 1-benzyl-3-(2-(2,3-dihydrobenzo[b][1,4]dioxin-6-yl)-2-oxoethyl)imidazolidine-2,4,5-trione] was tested, and the T1R1/T1R3 agonist (T1R1/T1R3 receptor [1]) was “No” and the “T1R1/T1R3 PAM” value (T1R1/T1R3 receptor [2]) was “No”.
For `O=C1C(=O)N(Cc2ccccc2)C(=S)N1Cc1ccccc1` [Formula 13, 1,3-dibenzyl-2-thioxoimidazolidine-4,5-dione], the T1R1/T1R3 agonist (T1R1/T1R3 receptor [1]) was “No” and the “T1R1/T1R3 PAM” value (T1R1/T1R3 receptor [2]) was “No”.
In the case of `CCCC(CCC)NC(=O)c1ccc2c(c1)OCO2` [Formula 14, N-(heptan-4-yl)benzo[d][1,3]dioxole-5-carboxamide], the T1R1/T1R3 agonist (T1R1/T1R3 receptor [1]) was “Yes” and the “T1R1/T1R3 PAM” value (T1R1/T1R3 receptor [2]) was “Yes”.
For `O=C(CN1C(=O)C(=O)N(Cc2ccccc2)C1=O)c1ccc2c(c1)CCC2` [Formula 2, 1-benzyl-3-(2-(2,3-dihydro-1H-inden-5-yl)-2-oxoethyl)imidazolidine-2,4,5-trione], the T1R1/T1R3 agonist (T1R1/T1R3 receptor [1]) was “No” and the “T1R1/T1R3 PAM” value (T1R1/T1R3 receptor [2]) was “No”.
`Cl.N[C@@H](Cc1ccccc1)C(=O)OCc1ccccc1` [L-Phenylalanine benzyl ester hydrochloride] was tested, and the agonist profile assessment (T1R1/T1R3 receptor [1]) was “agonist” and the PAM profile assessment (T1R1/T1R3 receptor [2]) was “PAM activity”.
`COC(=O)[C@@H](Cc1ccccc1)NCc1ccccc1.Cl` [N-Benzyl-D-Phenylalanine methyl ester hydrochloride] was tested, and the agonist profile assessment (T1R1/T1R3 receptor [1]) was “agonist” and the PAM profile assessment (T1R1/T1R3 receptor [2]) was “PAM activity”.
With `COc1ccc(C(=O)CN2C(=O)C(=O)N(Cc3ccccc3)C2=O)c(OC)c1` [Formula 5, 1-benzyl-3-(2-(2,4-dimethoxyphenyl)-2-oxoethyl)imidazolidine-2,4,5-trione] the T1R1/T1R3 agonist (T1R1/T1R3 receptor [1]) was “No” and the “T1R1/T1R3 PAM” value (T1R1/T1R3 receptor [2]) was “No”.
With `COC(=O)[C@H](Cc1ccccc1)NCc1ccccc1.Cl` [Formula 15, N-Benzyl-L-phenylalanine methyl ester hydrochloride] the T1R1/T1R3 agonist (T1R1/T1R3 receptor [1]) was “Yes” and the “T1R1/T1R3 PAM” value (T1R1/T1R3 receptor [2]) was “Yes”.
With `Cl.N[C@@H](Cc1ccccc1)C(=O)OCc1ccccc1` [Formula 20, L-Phenylalanine benzyl ester hydrochloride] the T1R1/T1R3 agonist (T1R1/T1R3 receptor [1]) was “Yes” and the “T1R1/T1R3 PAM” value (T1R1/T1R3 receptor [2]) was “Yes”.
In the case of `O=C(CN1C(=O)C(=O)N(Cc2ccccc2)C1=O)c1ccc2c(c1)OCCCO2` [Formula 8, 1-benzyl-3-(2-(3,4-dihydro-2H-benzo[b][1,4]dioxepin-7-yl)-2-oxoethyl)imidazolidine-2,4,5-trione], the T1R1/T1R3 agonist (T1R1/T1R3 receptor [1]) was “No”, the “T1R1/T1R3 PAM” value (T1R1/T1R3 receptor [2]) was “Weak PAM” and the PAM profile assessment (T1R1/T1R3 receptor [2]) was “PAM activity”.
With `COC(=O)[C@H](CC(C)C)NCc1ccccc1.Cl` [Benzyl-L-leucine methyl ester hydrochloride] the agonist profile assessment (T1R1/T1R3 receptor [1]) was “agonist” and the PAM profile assessment (T1R1/T1R3 receptor [2]) was “PAM activity”.
For `O=C(O)[C@H](Cc1ccc(O)cc1)NCc1ccccc1` [Formula 22, N-Benzyl-L-Tyrosine], the T1R1/T1R3 agonist (T1R1/T1R3 receptor [1]) was “No” and the “T1R1/T1R3 PAM” value (T1R1/T1R3 receptor [2]) was “No”.
With `O=C(CN1C(=O)C(=O)N(CCc2cccs2)C1=O)c1ccccc1` [Formula 6, 1-(2-oxo-2-phenylethyl)-3-(2-(thiophen-2-yl)ethyl)imidazolidine-2,4,5-trione] the T1R1/T1R3 agonist (T1R1/T1R3 receptor [1]) was “No” and the “T1R1/T1R3 PAM” value (T1R1/T1R3 receptor [2]) was “No”.
For `COC(=O)C(NCc1ccccc1)c1ccccc1` (stereo not drawn) [Formula 19, Methyl-2-benzylamino-2-phenylacetate], the T1R1/T1R3 agonist (T1R1/T1R3 receptor [1]) was “Yes” and the “T1R1/T1R3 PAM” value (T1R1/T1R3 receptor [2]) was “Yes”.
With `N[C@@H](Cc1ccc(O)cc1)C(=O)OCc1ccccc1` [Formula 21, L-Tyrosine benzyl ester] the T1R1/T1R3 agonist (T1R1/T1R3 receptor [1]) was “No” and the “T1R1/T1R3 PAM” value (T1R1/T1R3 receptor [2]) was “No”.
For `O=C(CN1C(=O)C(=O)N(Cc2ccccc2)C1=O)c1ccc(Cl)s1` [Formula 12, 1-benzyl-3-(2-(5-chlorothiophen-2-yl)-2-oxoethyl)imidazolidine-2,4,5-trione], the T1R1/T1R3 agonist (T1R1/T1R3 receptor [1]) was “No” and the “T1R1/T1R3 PAM” value (T1R1/T1R3 receptor [2]) was “Weak PAM”.
In the case of `O=C(CN1C(=O)C(=O)N(CCc2cccs2)C1=O)c1ccc2c(c1)OCO2` [Formula 7, 1-(2-(benzo[d][1,3]dioxol-5-yl)-2-oxoethyl)-3-(2-(thiophen-2-yl)ethyl)imidazolidine-2,4,5-trione], the T1R1/T1R3 agonist (T1R1/T1R3 receptor [1]) was “No” and the “T1R1/T1R3 PAM” value (T1R1/T1R3 receptor [2]) was “No”.
In the case of `O=C(CN1C(=O)C(=O)N(Cc2ccccc2)C1=O)c1ccccc1` [Formula 1, 1-benzyl-3-(2-oxo-2-phenylethyl)imidazolidine-2,4,5-trione], the T1R1/T1R3 agonist (T1R1/T1R3 receptor [1]) was “No” and the “T1R1/T1R3 PAM” value (T1R1/T1R3 receptor [2]) was “No”.
In the case of `O=C(CN1C(=O)C(=O)N(Cc2ccccc2)C1=O)c1ccc(Br)cc1` [Formula 3, 1-benzyl-3-(2-(4-bromophenyl)-2-oxoethyl)imidazolidine-2,4,5-trione], the T1R1/T1R3 agonist (T1R1/T1R3 receptor [1]) was “No” and the “T1R1/T1R3 PAM” value (T1R1/T1R3 receptor [2]) was “No”.
In the case of `COC(=O)C(NCc1ccccc1)c1ccccc1` (stereo not drawn) [Methyl-2-benzylamino-2-phenylacetate], the agonist profile assessment (T1R1/T1R3 receptor [1]) was “agonist” and the PAM profile assessment (T1R1/T1R3 receptor [2]) was “PAM activity”.
With `O=C(CN1C(=O)C(=O)N(Cc2ccccc2)C1=O)c1ccc(Cl)s1` [1-benzyl-3-(2-(5-chlorothiophen-2-yl)-2-oxoethyl)imidazolidine-2,4,5-trione] the PAM profile assessment (T1R1/T1R3 receptor [2]) was “PAM activity”.
`COC(=O)[C@@H](Cc1ccccc1)NCc1ccccc1.Cl` [Formula 16, N-Benzyl-D-Phenylalanine methyl ester hydrochloride] was tested, and the T1R1/T1R3 agonist (T1R1/T1R3 receptor [1]) was “Yes” and the “T1R1/T1R3 PAM” value (T1R1/T1R3 receptor [2]) was “Yes”.
With `N#Cc1cccc(NC(=O)CN2C(=O)C(=O)N(Cc3ccccc3)C2=O)c1` [Formula 9, 2-(3-benzyl-2,4,5-trioxoimidazolidin-1-yl)-N-(3-cyanophenyl)acetamide] the T1R1/T1R3 agonist (T1R1/T1R3 receptor [1]) was “No” and the “T1R1/T1R3 PAM” value (T1R1/T1R3 receptor [2]) was “No”.
In the case of `N[C@@H](CCC(=O)O)C(=O)[O-].[Na+]` [MSG (Glutamic acid sodium salt), monosodium glutamate], the “EC50 +IMP (0.2 mM)” value (T1R1/T1R3 receptor [4]; in the presence of 0.2 mM IMP) was “CNBD”, the “Max resp ΔF/F +IMP (0.2 mM)” value (T1R1/T1R3 receptor [4]; in the presence of 0.2 mM IMP) was “CNBD” and the “Max resp % of Ala +IMP (0.2 mM)” value (T1R1/T1R3 receptor [4]; [5]) was “CNBD”. For the same molecule, the “Thres +IMP (0.2 mM)” value (T1R1/T1R3 receptor [4]) was “CNBD”.
For `CC(C)CC(NC(=O)c1ccccc1)C(N)=O` (racemic), the “Thres +IMP (0.2 mM)” value (T1R1/T1R3 receptor [4]) was 0.1 mM.
